Legend:
recombinant human VISTA = target: T1, recombinant human VISTA (Homo sapiens, UniProt Q9H7M9); assay: Human PBMC IFN-γ release assay in the presence of recombinant human VISTA; format: cell-based; details: 100 nM compound, plate-coated VISTA + anti-CD3, anti-CD28, 72 h, ELISA
T1 construct: Fc (Fc chimera); purchased R&D Systems 7126-B7
Procedure: Example 2: Rescue of Mouse Splenocyte Proliferation in the Presence of Recombinant VISTA
Vehicle: Milli Q water; RPMI 1640 (GIBCO, Cat #11875); Fetal Bovine Serum [Hyclone, Cat #SH30071.03]; Penicilin (10000 unit/ml)-Streptomycin (10,000 μg/ml) liquid (GIBCO, Cat #15140-122); MEM Sodium Pyruvate solution 100 mM (100×), Liquid (GIBCO, Cat #11360); Nonessential amino acid (GIBCO, Cat #11140); L-Glutamine (GIBCO, Cat #25030); Recombinant human VISTA (rhGi24 VISTA/B7-H5 Fc chimera (R&D systems, cat no: 7126-B7); Anti-h/m Gi24/VISTA/B7-H5 purified mouse monoclonal IgG2B (R&D systems, cat no: MAB7126); Mouse IgG2B isotype control (R&D Systems cat no: MAB 004); Anti human-CD3 antibody (eBiosciences-16-0039); Anti human-CD28 antibody (eBiosciences-16-0289); Histopaque (density-1.077 gm/ml) (SIGMA 1077); Trypan Blue solution (SIGMA-T8154); Hemacytometer (Bright line-SIGMA Z359629); FACS Buffer containing Phosphate Buffered Saline (PBS) pH 7.2; (HiMedia TS1006) with 0.1% Bovine Serum Albumin (BSA) (SIGMA A7050) and sodium azide (SIGMA 08591); 96-well format ELISA plates (Corning 3599); 96-well format ELISA plates (Corning 3361); BD FACS caliber (E6016); Centrifuge (Eppendorf 5810 R); Human IFN-γ Duo set ELISA kit (R&D Systems; cat no: DY-285).
96-well cell culture plates were pre-coated with recombinant human VISTA (2.5 μg/ml) and anti-human CD3 (2.5 μg/ml), and stored at 4° C. overnight. Anti-human VISTA and isotype control antibodies were either coated along with the VISTA or incubated for 30 min next day before addition of cells. On the next day, plates were washed with 1×PBS and then incubated with test compounds for 30 min. Isolated PBMC (0.1×10^6 cells/well) and anti-human CD28 antibodies (lug/ml) were added to the wells. The culture was further incubated for 72 h at 37° C. with 5% CO2. After 72 h of incubation the cell culture supernatants were collected after brief centrifugation at 200 g×5 min at 4° C. and processed for human IFN-γ measurement by ELISA following manufacturer's protocol (R&D Systems; DY-285).
In brief, 96-well ELISA plates were coated with 100 μl/well of capture antibody in coating buffer and incubated overnight at 4° C. Plates were washed five times with wash buffer and further blocked with 200 μl of 1× assay diluents for 1 hr at RT. Following wash step, 100 μl of cell culture supernatants were added to wells and further incubated for 2 hr at RT. Appropriate standards were also included. After wash step, plate was incubated for one hour with 100 μl/well of detection antibody. The wash step was repeated and the plate was incubated for 30 min with 100 μl/well of Avidin-HRP. The plate was washed four times with wash buffer and subsequently incubated for 15 min with 100 μl/well of substrate solution. 50 μl of stop solution was added to each well and the plate was read at 450 nm using Gen5 ver 2.05. Delta OD values were used for calculating the concentrations. The absorbance values were plotted against the standards and the concentration of IFN-γ was determined using GraphPad Prism software. Each experimental condition was carried out in triplicates.
The percent rescue of IFN-γ release of the selected compounds of present invention are set forth below wherein “A” refers to compounds having more than 70% rescue of IFN-γ release, “B” refers to compounds having rescue of IFN-γ release ranges from 50% to 69.9% and “C” refers to compounds having less than 50% rescue of IFN-γ release.

Recombinant mouse PD-L1 = target: T2, Recombinant mouse PD-L1 (Mus musculus, UniProt Q9EP73); assay: Rescue of mouse splenocyte proliferation in the presence of recombinant PD-L1 (CFSE proliferation assay); format: cell-based; details: 100 nM compound; anti-CD3/CD28 stimulated mouse splenocytes + PD-L1; 72 h; stimulated splenocytes = 100%; read-out: PDL1 (rescue of proliferation @ 100 nM)
T2 construct: Fc (Fc chimera); purchased R&D Systems 1019-B7-100
Procedure: Example 1: Rescue of Mouse Splenocyte Proliferation in the Presence of Recombinant PD-L1/PD-L2
Recombinant mouse PD-L1 (rm-PDL-1, cat no: 1019-B7-100; R&D Systems) were used as the source of PD-L1.
Mouse splenocytes harvested from 6-8 weeks old C57 BL6 mice; RPMI 1640 (GIBCO, Cat #11875); DMEM with high glucose (GIBCO, Cat #D6429); Fetal Bovine Serum [Hyclone, Cat #SH30071.03]; Penicillin (10000unit/mL)-Streptomycin (10,000 μg/mL) Liquid (GIBCO, Cat #15140-122); MEM Sodium Pyruvate solution 100 mM (100×), Liquid (GIBCO, Cat #11360); Nonessential amino acid (GIBCO, Cat #11140); L-Glutamine (GIBCO, Cat #25030); Anti-CD3 antibody (eBiosciences-16-0032); Anti-CD28 antibody (eBiosciences-16-0281); ACK lysis buffer (1mL) (GIBCO, Cat #-A10492); Histopaque (density-1.083 gm/mL) (SIGMA 10831); Trypan blue solution (SIGMA-T8154); 2 mL Norm Ject Luer Lock syringe-(Sigma 2014-12); 40 μm nylon cell strainer (BD FALCON 35230); Hemacytometer (Bright line-SIGMA Z359629); FACS Buffer (PBS/0.1% BSA): Phosphate Buffered Saline (PBS) pH 7.2 (HiMedia TS1006) with 0.1% Bovine Serum Albumin (BSA) (SIGMA A7050) and sodium azide (SIGMA 08591); 5 mM stock solution of CFSE: CFSE stock solution was prepared by diluting lyophilized CFSE with 180 μL of Dimethyl sulfoxide (DMSO C2H6SO, SIGMA-D-5879) and aliquoted in to tubes for further use. Working concentrations were titrated from 10 μM to 1 μM. (eBioscience-650850-85); 0.05% Trypsin and 0.02% EDTA (SIGMA 59417C); 96-well format ELISA plates (Corning CLS3390); BD FACS caliber (E6016);
Recombinant mouse B7-H1/PDL1 Fc Chimera, (rm-PD-L1 cat no: 1019-B7-100).
Splenocytes harvested in a 50 mL falcon tube by mashing mouse spleen in a 40 μm cell strainer were further treated with 1 mL ACK lysis buffer for 5 min at room temperature.
After washing with 9 mL of RPMI complete media, cells were re-suspended in 3 mL of 1×PBS in a 15 mL tube. 3 mL of Histopaque was added carefully to the bottom of the tube without disturbing overlaying splenocyte suspension. After centrifuging at 800×g for 20 min at room temperature, the opaque layer of splenocytes was collected carefully without disturbing/mixing the layers. Splenocytes were washed twice with cold 1×PBS followed by total cell counting using Trypan Blue exclusion method and used further for cell based assays.
Splenocytes were cultured in RPMI complete media (RPMI +10% fetal bovine serum+1 mM sodium pyruvate+10,000units/mL penicillin and 10,000 μg/mL streptomycin) and maintained in a CO2 incubator with 5% CO2 at 37° C.
CFSE is a dye that passively diffuses into cells and binds to intracellular proteins. 1×10^6 cells/mL of harvested splenocytes were treated with 5 μM of CFSE in pre-warmed 1×PBS/0.1% BSA solution for 10 min at 37° C. Excess CFSE was quenched using 5 volumes of ice-cold culture media to the cells and incubated on ice for 5 min. CFSE labelled splenocytes were further given three washes with ice cold complete RPMI media. CFSE labelled 1×10^5 splenocytes added to wells containing either MDA-MB231 cells (1×10^5 cells cultured in high glucose DMEM medium) or recombinant […] PDL-1 (100 ng/mL) and test compounds. Splenocytes were stimulated with anti-mouse CD3 and anti-mouse CD28 antibody (lug/mL each), and the culture was further incubated for 72 h at 37° C. with 5% CO2. Cells were harvested and washed thrice with ice cold FACS buffer and % proliferation was analysed by flow cytometry with 488 nm excitation and 521 nm emission filters.
Percent splenocyte proliferation was analysed using cell quest FACS program and percent rescue of splenocyte proliferation by compound was estimated after deduction of % background proliferation value and normalising to % stimulated splenocyte proliferation (positive control) as 100%.
Stimulated splenocytes: Splenocytes+anti-CD3/CD28 stimulation
Background proliferation: Splenocytes+anti-CD3/CD28+PD-L1
Compound proliferation: Splenocytes+anti-CD3/CD28+PD-L1+Compound […]

T1 sequence (Q9H7M9 with tags, fused parts or gaps limits assumed): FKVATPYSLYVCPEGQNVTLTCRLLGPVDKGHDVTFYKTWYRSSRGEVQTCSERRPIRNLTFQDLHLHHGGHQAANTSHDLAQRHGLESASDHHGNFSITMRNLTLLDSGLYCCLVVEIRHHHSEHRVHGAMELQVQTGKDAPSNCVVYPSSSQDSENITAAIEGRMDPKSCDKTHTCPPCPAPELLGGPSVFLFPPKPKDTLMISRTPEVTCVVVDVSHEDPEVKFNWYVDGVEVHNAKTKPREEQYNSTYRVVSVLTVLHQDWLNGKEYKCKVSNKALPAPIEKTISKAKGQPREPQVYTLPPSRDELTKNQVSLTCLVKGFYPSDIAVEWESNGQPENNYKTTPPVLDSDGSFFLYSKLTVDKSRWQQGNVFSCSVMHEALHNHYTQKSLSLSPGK
T2 sequence (Q9EP73 19-238 limits assumed): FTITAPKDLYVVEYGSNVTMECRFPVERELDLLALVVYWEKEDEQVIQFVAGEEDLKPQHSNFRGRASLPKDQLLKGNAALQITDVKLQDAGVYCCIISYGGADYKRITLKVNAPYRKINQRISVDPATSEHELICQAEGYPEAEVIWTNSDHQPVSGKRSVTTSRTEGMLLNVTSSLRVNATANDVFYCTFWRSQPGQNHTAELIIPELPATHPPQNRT

SMILES | VISTA (rescue of IFN γ release @ 100 nM) (recombinant human VISTA) | activation at 0.1 µM (Recombinant mouse PD-L1) [%]
CC(O)[C@H](NC(=O)N[C@@H](CC(N)=O)c1nc(C2(N)CCCCC2)no1)C(=O)O (stereo partly shown) [Compound 19] | B (rescue of IFN-γ release ranges from 50% to 69.9%) | 86
CC(O)[C@H](NC(=O)N[C@@H](CC(N)=O)c1nc([C@H](N)CO)no1)C(=O)O (stereo partly shown) [Compound 21] | A (more than 70% rescue of IFN-γ release) | 64
CC(O)[C@@H](NC(=O)N[C@H](CC(N)=O)c1nc([C@H](N)CO)no1)C(=O)O (stereo partly shown) [Compound 22] | A (more than 70% rescue of IFN-γ release) | 83
CC(O)[C@@H](NC(=O)N[C@@H](CC(N)=O)c1nc([C@H](N)CO)no1)C(=O)O (stereo partly shown) [Compound 23] | A (more than 70% rescue of IFN-γ release) | 72
CC(O)[C@H](NC(=O)N[C@H](CC(N)=O)c1nc([C@H](N)CO)no1)C(=O)O (stereo partly shown) [Compound 24] | A (more than 70% rescue of IFN-γ release) | 55
